Measurements: paper PMC11845477, “Exploring the principles behind antibiotics with limited resistance” (Nature Communications, 2025)

Key:
[1] = tested on: E. coli ATCC 25922 (SEN) and E. coli NCTC13846 (MDR); assay: microbe, parasite or virus in culture; type: cell-based, Escherichia coli; conditions: for MIC: across three biological replicates
Outline: (§1)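 Broth microdilution in cation-adjusted Mueller-Hinton Broth 2 (except SCH79797), 11 to 16-step serial dilutions, inoculum 5 × 10^5 cells per mL. Plates shaken at 37 °C for 18 hours, 2 replicates. MIC taken as lowest concentration giving complete growth inhibition, OD600 < 0.05; relative MIC = MICevolved/MICancestor.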

[2] = tested on: A. baumannii ATCC 17978 (SEN) and A. baumannii ATCC BAA-1605 (MDR); assay: microbe, parasite or virus in culture; type: cell-based, Acinetobacter baumannii; conditions: for MIC: across three biological replicates
Outline: as §1

[3] = tested on: E. coli ATCC 25922 (SEN) and E. coli NCTC13846 (MDR); assay: Adaptive laboratory evolution (ALE), relative MIC of evolved lines; type: cell-based, Escherichia coli
Outline: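 Ten parallel populations per antibiotic–ancestor pair were evolved in MHB at 37 °C, starting near 50% growth-inhibiting drug. Every 72 h they were passaged into 0.5–2.5× increasing concentrations, keeping the highest-drug well with OD600 > 0.2.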

[4] = Escherichia coli ATCC 25922 (EC-SEN)
[5] = Escherichia coli NCTC 13846 (EC-MDR)
[6] = ancestor EC-SEN (Escherichia coli ATCC 25922)
[7] = Acinetobacter baumannii ATCC 17978 (AB-SEN)
[8] = Acinetobacter baumannii ATCC BAA-1605 (AB-MDR)
[9] = EC-SEN (E. coli ATCC 25922), evolved line 5 vs ancestor
[10] = EC-SEN (E. coli ATCC 25922), evolved line 6 vs ancestor
[11] = EC-SEN (E. coli ATCC 25922), evolved line 7 vs ancestor
[12] = EC-SEN (E. coli ATCC 25922), evolved line 8 vs ancestor
[13] = EC-SEN (E. coli ATCC 25922), evolved line 9 vs ancestor
[14] = EC-SEN (E. coli ATCC 25922), evolved line 10 vs ancestor
[15] = EC-SEN (Escherichia coli ATCC 25922), evolved line 8
[16] = EC-SEN (Escherichia coli ATCC 25922), evolved line 10
[17] = Escherichia coli ATCC 25922 (EC-SEN), evolved line 5
[18] = Escherichia coli ATCC 25922 (EC-SEN), evolved line 6
[19] = Escherichia coli ATCC 25922 (EC-SEN), evolved line 7
[20] = Escherichia coli ATCC 25922 (EC-SEN), evolved line 8
[21] = Escherichia coli ATCC 25922 (EC-SEN), evolved line 9
[22] = Escherichia coli ATCC 25922 (EC-SEN), evolved line 10

C[C@@H](O)[C@H]1C(=O)N2C(C(=O)O)=C(S[C@H]3CC[S@@+]([O-])C3)S[C@H]12 [Sulopenem]
8 µg/mL: MIC of evolved line ([3]; EC-MDR (E. coli NCTC 13846), evolved line 9 of the given antibiotic)
16: Relative MIC ([3]; EC-MDR (E. coli NCTC 13846), evolved line 2 vs ancestor) | Relative MIC ([3]; EC-MDR (E. coli NCTC 13846), evolved line 7 vs ancestor) | Relative MIC ([3]; Escherichia coli NCTC 13846 (EC-MDR), evolved line 2) | Relative MIC ([3]; Escherichia coli NCTC 13846 (EC-MDR), evolved line 7)
256: Relative MIC ([3]; EC-MDR (E. coli NCTC 13846), evolved line 9 vs ancestor) | Relative MIC ([3]; Escherichia coli NCTC 13846 (EC-MDR), evolved line 9)
128: Relative MIC ([3]; EC-MDR (E. coli NCTC 13846), evolved line 3 vs ancestor) | Relative MIC ([3]; EC-MDR (E. coli NCTC 13846), evolved line 4 vs ancestor) | Relative MIC ([3]; EC-MDR (E. coli NCTC 13846), evolved line 8 vs ancestor) | Relative MIC ([3]; EC-MDR (E. coli NCTC 13846), evolved line 10 vs ancestor) | Relative MIC ([3]; Escherichia coli NCTC 13846 (EC-MDR), evolved line 3) | Relative MIC ([3]; Escherichia coli NCTC 13846 (EC-MDR), evolved line 4) | Relative MIC ([3]; Escherichia coli NCTC 13846 (EC-MDR), evolved line 8) | Relative MIC ([3]; Escherichia coli NCTC 13846 (EC-MDR), evolved line 10)
4: Relative MIC [3, 13] | Relative MIC [3, 14] | Relative MIC [3, 21] | Relative MIC [3, 22]
0.0312 µg/mL: MIC of ancestor ([1]; E. coli NCTC 13846 (EC-MDR), ancestor strain, sheet fig 2a) | MIC of ancestor ([1]; ancestor EC-MDR (Escherichia coli NCTC 13846)) | MIC of ancestor [1, 6]
2.709 log10: Relative MIC (log10) ([3]; EC-MDR (Escherichia coli NCTC 13846), evolved line 5)
2.107 log10: Relative MIC (log10) ([3]; EC-MDR (Escherichia coli NCTC 13846), evolved line 4) | Relative MIC (log10) ([3]; EC-MDR (Escherichia coli NCTC 13846), evolved line 8) | Relative MIC (log10) ([3]; EC-MDR (Escherichia coli NCTC 13846), evolved line 10)
0.125 µg/mL: MIC of evolved line ([3]; EC-SEN (E. coli ATCC 25922), evolved line 9 of the given antibiotic) | MIC of evolved line ([3]; EC-SEN (E. coli ATCC 25922), evolved line 10 of the given antibiotic)
0.5 µg/mL: MIC of evolved line ([3]; EC-MDR (E. coli NCTC 13846), evolved line 2 of the given antibiotic) | MIC of evolved line ([3]; EC-MDR (E. coli NCTC 13846), evolved line 7 of the given antibiotic)
8: Relative MIC [3, 9] | Relative MIC [3, 10] | Relative MIC [3, 11] | Relative MIC [3, 12] | Relative MIC [3, 17] | Relative MIC [3, 18] | Relative MIC [3, 19] | Relative MIC [3, 20]
0.0625 µg/mL: MIC [1, 4]
4 µg/mL: MIC of evolved line ([3]; EC-MDR (E. coli NCTC 13846), evolved line 3 of the given antibiotic) | MIC of evolved line ([3]; EC-MDR (E. coli NCTC 13846), evolved line 4 of the given antibiotic) | MIC of evolved line ([3]; EC-MDR (E. coli NCTC 13846), evolved line 8 of the given antibiotic) | MIC of evolved line ([3]; EC-MDR (E. coli NCTC 13846), evolved line 10 of the given antibiotic)
0.25 µg/mL: MIC of evolved line ([3]; EC-SEN (E. coli ATCC 25922), evolved line 5 of the given antibiotic) | MIC of evolved line ([3]; EC-SEN (E. coli ATCC 25922), evolved line 6 of the given antibiotic) | MIC of evolved line ([3]; EC-SEN (E. coli ATCC 25922), evolved line 7 of the given antibiotic) | MIC of evolved line ([3]; EC-SEN (E. coli ATCC 25922), evolved line 8 of the given antibiotic)
2.408 log10: Relative MIC (log10) ([3]; EC-MDR (Escherichia coli NCTC 13846), evolved line 9)
16 µg/mL: MIC of evolved line ([3]; EC-MDR (E. coli NCTC 13846), evolved line 1 of the given antibiotic) | MIC of evolved line ([3]; EC-MDR (E. coli NCTC 13846), evolved line 5 of the given antibiotic)
32 µg/mL: MIC [2, 8]
0.9031 log10: Relative MIC (log10) ([3]; EC-SEN (Escherichia coli ATCC 25922), evolved line 6) | Relative MIC (log10) ([3]; EC-SEN (Escherichia coli ATCC 25922), evolved line 7) | Relative MIC (log10) [3, 15]
512: Relative MIC ([3]; EC-MDR (E. coli NCTC 13846), evolved line 1 vs ancestor) | Relative MIC ([3]; EC-MDR (E. coli NCTC 13846), evolved line 5 vs ancestor) | Relative MIC ([3]; Escherichia coli NCTC 13846 (EC-MDR), evolved line 1) | Relative MIC ([3]; Escherichia coli NCTC 13846 (EC-MDR), evolved line 5)
0.03125 µg/mL: MIC [1, 5]
0.6021 log10: Relative MIC (log10) ([3]; EC-SEN (Escherichia coli ATCC 25922), evolved line 9) | Relative MIC (log10) [3, 16]
1 µg/mL: MIC of ancestor ([2]; Acinetobacter baumannii ATCC 17978 (AB-SEN), ancestor strain, sheet fig 2a) | MIC [2, 7] | MIC of ancestor ([2]; ancestor AB-SEN (Acinetobacter baumannii ATCC 17978))

C[C@@H]1CN2c3c(cc4c(N5C(=O)OC[C@@H]5C)noc4c3F)CC3(C(=O)NC(=O)NC3=O)[C@H]2[C@H](C)O1 [Zoliflodacin]
64: Relative MIC ([3]; EC-SEN (E. coli ATCC 25922), evolved line 1 vs ancestor) | Relative MIC [3, 11] | Relative MIC [3, 13] | Relative MIC ([3]; Escherichia coli ATCC 25922 (EC-SEN), evolved line 1) | Relative MIC [3, 19] | Relative MIC [3, 21]
16 µg/mL: MIC ([1]; Escherichia coli, Escherichia coli NCTC 13846 (EC-MDR)) | MIC ([2]; Acinetobacter baumannii, Acinetobacter baumannii ATCC BAA-1605 (AB-MDR))
128: Relative MIC ([3]; EC-SEN (E. coli ATCC 25922), evolved line 3 vs ancestor) | Relative MIC ([3]; EC-SEN (E. coli ATCC 25922), evolved line 4 vs ancestor) | Relative MIC [3, 12] | Relative MIC [3, 14] | Relative MIC ([3]; Escherichia coli ATCC 25922 (EC-SEN), evolved line 3) | Relative MIC ([3]; Escherichia coli ATCC 25922 (EC-SEN), evolved line 4) | Relative MIC [3, 20] | Relative MIC [3, 22]
2.107 log10: Relative MIC (log10) ([3]; EC-SEN (Escherichia coli ATCC 25922), evolved line 3) | Relative MIC (log10) ([3]; EC-SEN (Escherichia coli ATCC 25922), evolved line 4) | Relative MIC (log10) [3, 15] | Relative MIC (log10) [3, 16]
8 µg/mL: MIC ([2]; Acinetobacter baumannii, Acinetobacter baumannii ATCC 17978 (AB-SEN))
8: Relative MIC ([3]; EC-SEN (E. coli ATCC 25922), evolved line 2 vs ancestor) | Relative MIC ([3]; Escherichia coli ATCC 25922 (EC-SEN), evolved line 2)
2 µg/mL: MIC of ancestor ([1]; Escherichia coli ATCC 25922 (EC-SEN), ancestor strain, sheet fig 2a) | MIC ([1]; Escherichia coli, Escherichia coli ATCC 25922 (EC-SEN)) | MIC of ancestor [1, 6]
2.408 log10: Relative MIC (log10) ([3]; EC-SEN (Escherichia coli ATCC 25922), evolved line 5)
32: Relative MIC [3, 10] | Relative MIC [3, 18]
256: Relative MIC [3, 9] | Relative MIC [3, 17]

POL7306
8: Relative MIC ([3]; ALE, Escherichia coli ATCC 25922 (EC-SEN), evolved line 2) | Relative MIC ([3]; ALE, Escherichia coli ATCC 25922 (EC-SEN), evolved line 8) | Relative MIC ([3]; ALE, Escherichia coli ATCC 25922 (EC-SEN), evolved line 9)
1 µg/mL: MIC [1, 4] | MIC [2, 7] | MIC [2, 8]
2: Relative MIC ([3]; ALE, Escherichia coli ATCC 25922 (EC-SEN), evolved line 1) | Relative MIC ([3]; ALE, Escherichia coli NCTC 13846 (EC-MDR), evolved line 1) | Relative MIC ([3]; ALE, Escherichia coli NCTC 13846 (EC-MDR), evolved line 6) | Relative MIC ([3]; ALE, Escherichia coli NCTC 13846 (EC-MDR), evolved line 7)
4 µg/mL: MIC [1, 5]
4: Relative MIC ([3]; ALE, Escherichia coli ATCC 25922 (EC-SEN), evolved line 3) | Relative MIC ([3]; ALE, Escherichia coli ATCC 25922 (EC-SEN), evolved line 4) | Relative MIC ([3]; ALE, Escherichia coli ATCC 25922 (EC-SEN), evolved line 5) | Relative MIC ([3]; ALE, Escherichia coli ATCC 25922 (EC-SEN), evolved line 6) | Relative MIC ([3]; ALE, Escherichia coli ATCC 25922 (EC-SEN), evolved line 7) | Relative MIC ([3]; ALE, Escherichia coli ATCC 25922 (EC-SEN), evolved line 10) | Relative MIC ([3]; ALE, Escherichia coli NCTC 13846 (EC-MDR), evolved line 8)
1: Relative MIC ([3]; ALE, Escherichia coli NCTC 13846 (EC-MDR), evolved line 2) | Relative MIC ([3]; ALE, Escherichia coli NCTC 13846 (EC-MDR), evolved line 3) | Relative MIC ([3]; ALE, Escherichia coli NCTC 13846 (EC-MDR), evolved line 4) | Relative MIC ([3]; ALE, Escherichia coli NCTC 13846 (EC-MDR), evolved line 5) | Relative MIC ([3]; ALE, Escherichia coli NCTC 13846 (EC-MDR), evolved line 9) | Relative MIC ([3]; ALE, Escherichia coli NCTC 13846 (EC-MDR), evolved line 10)
